Among the data in the supplement of paper PMC10657565 are relative cell viability values, retold here.

Structures are written as SMILES. ± gives the uncertainty stated by the source.

Test in all cases: relative cell viability vs DMSO control (% of DMSO control); higher = less growth inhibition (higher viability)
What all share (details): treatment time: 72 h

One experiment relates to BT-474. Here is the method: (§1)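 Breast cancer cell lines (BT-474, HCC1806, SUM-159, SKBR-3) were seeded in triplicate in 96-well plates and treated 24 h after seeding with kinase inhibitors at 8 doses (3 nM to 30 uM). After 72 h, viability was read by CellTiter-Glo luminescence. Values were averaged over replicates and normalised to DMSO-only (0.1%) controls on each plate to give relative viability (% of DMSO).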

Another experiment concerns SUM159. The protocol: as §1
The next experiment concerns HCC1806. Here is the method:
as §1

The next experiment has as its system SKBR3. Here is the method: as §1

Turning to `COCCN1CCN(Cc2ccc(-c3n[nH]c4c3C(=O)c3c(NC(=O)NN5CCOCC5)cccc3-4)cc2)CC1`, the relative cell viability with BT-474 (0.003 µM) was 97.7 ± 4.1; in the experiment with BT-474 (0.01 µM), 86 ± 3.1; with BT-474 (0.03 µM) it was 66.7 ± 7; in the experiment with BT-474 (0.1 µM), 64.5 ± 6.1; with BT-474 (0.3 µM) it was 69.8 ± 8.4; in the experiment on BT-474 (1 µM) it was 70.8 ± 15. Further, the relative cell viability in the experiment on BT-474 (3 µM) was 75.2 ± 7.9; with BT-474 (30 µM), 11.2 ± 0.36; with SUM159 (0.003 µM), 97.1 ± 6.1; with SUM159 (0.01 µM), 60.4 ± 30; with SUM159 (0.03 µM), 14.3 ± 16; with SUM159 (0.1 µM), 7.11 ± 1. Also, the relative cell viability amounted to 8.54 ± 0.38 in the experiment on SUM159 (0.3 µM); 9.97 ± 0.5 in the experiment with SUM159 (1 µM); 7.7 ± 0.38 in the experiment on SUM159 (3 µM); 0.538 ± 0.063 in the experiment on SUM159 (30 µM); 96.5 ± 1.7 in the experiment on HCC1806 (0.003 µM); 83.3 ± 2.7 with HCC1806 (0.01 µM). In addition, the relative cell viability in the experiment with HCC1806 (0.03 µM) amounted to 42.8 ± 16; in the experiment on HCC1806 (0.1 µM), 11.7 ± 1.4; in the experiment with HCC1806 (0.3 µM), 9.5 ± 1.1; in the experiment on HCC1806 (1 µM), 9.2 ± 0.52; in the experiment on HCC1806 (3 µM), 9.82 ± 0.46; in the experiment on HCC1806 (30 µM) it was 2.82 ± 1.3. The relative cell viability with SKBR3 (0.003 µM) came to 84.2 ± 3.5; with SKBR3 (0.01 µM) it was 71 ± 7.2; in the experiment with SKBR3 (0.03 µM) it was 50 ± 7; with SKBR3 (0.1 µM), 18.1 ± 8.7; with SKBR3 (0.3 µM) it was 8.06 ± 0.7; in the experiment with SKBR3 (1 µM), 7.43 ± 0.26. Moreover, the relative cell viability in the experiment on SKBR3 (3 µM) was 5.73 ± 0.075; in the experiment on SKBR3 (30 µM), 0.827 ± 0.17.

`c1cc(OCCN2CCCCC2)cc(-c2n[nH]c3ccc(-c4nnc[nH]4)cc23)c1` [CC-401]: the relative cell viability with SUM159 (0.003 µM) worked out at 102 ± 3.9; in the experiment on SUM159 (0.01 µM), 102 ± 5; in the experiment on SUM159 (0.03 µM), 101 ± 2.8; in the experiment with SUM159 (0.1 µM), 99.9 ± 2.5; with SUM159 (0.3 µM), 98.4 ± 4.2; with SUM159 (1 µM), 103 ± 2.2. The relative cell viability in the experiment on SUM159 (3 µM) is 105 ± 3.4; in the experiment on SUM159 (30 µM) it was 52.5 ± 2.7; in the experiment on SKBR3 (0.003 µM) it was 104 ± 2.5; in the experiment with SKBR3 (0.01 µM), 104 ± 5.8; in the experiment on SKBR3 (0.03 µM), 105 ± 2.5; with SKBR3 (0.1 µM), 100 ± 3.7. In addition, the relative cell viability was found to be 99.8 ± 2.2 with SKBR3 (0.3 µM), 94.5 ± 4.1 in the experiment with SKBR3 (1 µM), 91 ± 2.1 in the experiment with SKBR3 (3 µM) and 68.2 ± 3.2 with SKBR3 (30 µM).

For the molecule `Cc1cc(Nc2ncc(Cl)c(Nc3ccccc3S(=O)(=O)C(C)C)n2)c(OC(C)C)cc1C1CCNCC1` [Ceritinib], the relative cell viability in the experiment on SUM159 (0.003 µM) is 103 ± 1.4; with SUM159 (0.01 µM) it was 104 ± 2.6; in the experiment on SUM159 (0.03 µM) it was 103 ± 2.6; in the experiment on SUM159 (0.1 µM), 97.1 ± 3.6; in the experiment on SUM159 (0.3 µM) it was 90.8 ± 8.2; in the experiment with SUM159 (1 µM), 53.9 ± 11. The relative cell viability stood at 1.44 ± 0.14 in the experiment on SUM159 (3 µM); 0.279 ± 0.078 with SUM159 (30 µM); 104 ± 3 in the experiment on SKBR3 (0.003 µM); 105 ± 2 in the experiment with SKBR3 (0.01 µM); 102 ± 4.2 with SKBR3 (0.03 µM); 99.8 ± 3.8 in the experiment on SKBR3 (0.1 µM). In addition, the relative cell viability with SKBR3 (0.3 µM) worked out at 96.4 ± 2.8; in the experiment with SKBR3 (1 µM), 89.1 ± 5.3; with SKBR3 (3 µM), 10.7 ± 4.1; with SKBR3 (30 µM), 0.491 ± 0.1.

With `COc1cc2ncnc(Nc3ccc(O)cc3)c2cc1OC` [JANEX-1], the relative cell viability is 101 ± 6.1 in the experiment on SUM159 (0.003 µM); 103 ± 1.8 in the experiment with SUM159 (0.01 µM); 104 ± 2.1 with SUM159 (0.03 µM); 102 ± 3.1 in the experiment with SUM159 (0.1 µM); 97.9 ± 3.6 in the experiment with SUM159 (0.3 µM); 96.2 ± 4.1 in the experiment on SUM159 (1 µM). For the same molecule, the relative cell viability was determined as 92.5 ± 1.9 in the experiment on SUM159 (3 µM); 59.2 ± 2.8 in the experiment on SUM159 (30 µM); 106 ± 3.1 with SKBR3 (0.003 µM); 104.9 ± 0.48 in the experiment with SKBR3 (0.01 µM); 107 ± 1.8 in the experiment on SKBR3 (0.03 µM); 105 ± 3.3 in the experiment with SKBR3 (0.1 µM). Also, the relative cell viability in the experiment with SKBR3 (0.3 µM) was found to be 104 ± 2.6; with SKBR3 (1 µM), 101 ± 5.9; in the experiment on SKBR3 (3 µM), 100 ± 1.5; with SKBR3 (30 µM), 61.4 ± 2.9.

Turning to `COC(=O)[C@@]1(O)C[C@H]2O[C@]1(C)n1c3ccccc3c3c4c(c5c6ccccc6n2c5c31)C(=O)NC4` [K-252a], the relative cell viability in the experiment with BT-474 (0.003 µM) stood at 113 ± 7.6; with BT-474 (0.01 µM) it was 106 ± 6.3; with BT-474 (0.03 µM), 99.6 ± 7.7; in the experiment on BT-474 (0.1 µM), 91.6 ± 6.8; with BT-474 (0.3 µM) it was 81.3 ± 4.5; in the experiment on BT-474 (1 µM), 58.9 ± 7.6. Besides, the relative cell viability with BT-474 (3 µM) amounted to 21.3 ± 4.6; with BT-474 (30 µM), 1.44 ± 0.18; in the experiment with SUM159 (0.003 µM), 68.7 ± 6.9; with SUM159 (0.01 µM), 63.8 ± 1.2; in the experiment on SUM159 (0.03 µM), 72.2 ± 3; in the experiment on SUM159 (0.1 µM), 34.7 ± 9.7. In addition, the relative cell viability with SUM159 (0.3 µM) came out at 12.9 ± 2.6; in the experiment on SUM159 (1 µM), 6.47 ± 1.4; in the experiment with SUM159 (3 µM), 4.82 ± 0.85; in the experiment on SUM159 (30 µM), 2.12 ± 0.57; in the experiment on HCC1806 (0.003 µM), 91.4 ± 5.5; with HCC1806 (0.01 µM) it was 81.8 ± 5.3. Besides, the relative cell viability in the experiment on HCC1806 (0.03 µM) was determined as 75.8 ± 6.2; in the experiment with HCC1806 (0.1 µM), 62.3 ± 13; with HCC1806 (0.3 µM) it was 26.1 ± 8.3; in the experiment on HCC1806 (1 µM), 13 ± 1.5; with HCC1806 (3 µM), 5.96 ± 2.1; in the experiment on HCC1806 (30 µM), 0.762 ± 0.15. The relative cell viability is 92.4 ± 4.2 in the experiment on SKBR3 (0.003 µM); 90.4 ± 2 in the experiment on SKBR3 (0.01 µM); 87.8 ± 4.2 in the experiment on SKBR3 (0.03 µM); 81.8 ± 3.8 with SKBR3 (0.1 µM); 69.2 ± 4.8 in the experiment with SKBR3 (0.3 µM); 54.3 ± 1.9 with SKBR3 (1 µM). The relative cell viability was found to be 40 ± 2.8 with SKBR3 (3 µM) and 1.88 ± 0.54 in the experiment with SKBR3 (30 µM).

Take `Cc1c(F)cc(C(=O)NC2CC2)cc1-c1ccc(C(=O)NCC(C)(C)C)cn1` [Losmapimod]: the relative cell viability was found to be 98.8 ± 3 with SUM159 (0.003 µM); 97.2 ± 1.3 with SUM159 (0.01 µM); 98 ± 7 with SUM159 (0.03 µM); 99 ± 5.2 with SUM159 (0.1 µM); 92.7 ± 2.7 in the experiment on SUM159 (0.3 µM); 91.5 ± 5 with SUM159 (1 µM). In addition, the relative cell viability with SUM159 (3 µM) stood at 87.5 ± 2.5; in the experiment with SUM159 (30 µM) it was 68.5 ± 3.9; with SKBR3 (0.003 µM), 105 ± 4.8; in the experiment with SKBR3 (0.01 µM), 102 ± 7; with SKBR3 (0.03 µM), 101 ± 5.5; in the experiment on SKBR3 (0.1 µM), 95.9 ± 5.4. Besides, the relative cell viability in the experiment on SKBR3 (0.3 µM) stood at 95.9 ± 5.7; with SKBR3 (1 µM) it was 93 ± 4.7; in the experiment on SKBR3 (3 µM), 93.4 ± 2.4; in the experiment with SKBR3 (30 µM), 73.6 ± 2.7.

On to `CC(C)c1cc(CNc2nc(Nc3cc(C4CC4)[nH]n3)cc(N3CCN(C)CC3)n2)on1` [XL-228], for which the relative cell viability with SUM159 (0.003 µM) worked out at 74.7 ± 5.2; in the experiment with SUM159 (0.01 µM), 61.4 ± 1.7; with SUM159 (0.03 µM) it was 54.32 ± 0.48; in the experiment on SUM159 (0.1 µM), 36.5 ± 1.4; with SUM159 (0.3 µM), 26.8 ± 1.6; with SUM159 (1 µM), 11 ± 0.61. Besides, the relative cell viability in the experiment on SUM159 (3 µM) is 6.45 ± 0.28; in the experiment on SUM159 (30 µM) it was 10.8 ± 0.58; in the experiment with SKBR3 (0.003 µM), 103 ± 1.4; in the experiment on SKBR3 (0.01 µM) it was 101 ± 2.3; in the experiment with SKBR3 (0.03 µM), 101 ± 7.3; in the experiment with SKBR3 (0.1 µM), 100 ± 6.3. Moreover, the relative cell viability in the experiment on SKBR3 (0.3 µM) stood at 115 ± 6.3; with SKBR3 (1 µM) it was 117 ± 3.9; in the experiment on SKBR3 (3 µM), 52.2 ± 6.2; in the experiment on SKBR3 (30 µM) it was 6.72 ± 0.86.
